Experimental data from patent US7507727B2, “Substituted quinobenzoxazine analogs and methods of using thereof” (Cylene Pharmaceuticals, Inc., priority 2003, dated 2009).
Where “and” joins values, the source holds several entries; their conditions need not be identical. Equal values may be shown once. Read-outs that look alike come from different tables or passages of the source.

How the values were obtained:
topoisomerase II = assay: Topoisomerase-II poison assay; type: biochemical
Excerpt: FIG. 7 illustrates data from a toposiomerase-II poison assay, using VP-16 (Etoposide) as a control Topoisomerase-II poison.

[1] = system: Salmonella typhimurium (TA97a, TA98, TA100, TA102, TA1535); settings: for FI / TA100 colony count (Rep 1-3) / TA100 colony count, Mean: dose range
Procedure: This Mutagenicity Assessment (Ames Assay) evaluated the potential of the test article extracts to induce histidine (his) reversion in S. typhimurium (his− to his+) or tryptophan (trp) reversion in E. coli (trp− to trp+) caused by base changes or frameshift mutations in the genome of tester organisms.
This plate incorporation assay was conducted with five strains of Salmonella typhimurium (TA97a, TA98, TA100, TA102, and TA1535) and one strain of Escherichia coli (WP2-uvrA^−) in the presence and absence of an exogenous mammalian activation system (S9). The test article was dissolved in 5% dextrose. A series of dilutions were then prepared in saline just prior to testing. A Range Finding Study was conducted for this assay to determine the appropriate doses for definitive mutagenicity assessment.
A stock solution of test article was prepared at 20.0 mg/mL as follows: 1.0 g test article was added to 15.0 mL of 0.1 HCl for 1 minute. The test article was stirred for 15 minutes at room temperature. Next 33.0 mL of deionized water was added and allowed to stir for 30 minutes. […] Lower doses were prepared by dilution in 5% dextrose from this stock immediately prior to use. To minimize any change of degradation, the test article solutions were kept on ice after preparation and until just prior to dosing procedures. The test article was administered in vitro, through a solvent compatible with the test system.
This assay has historically been used to detect mutation in a gene of a histidine requiring strain to produce a histidine independent strain or concordantly, to detect mutation in a gene of a tryptophan requiring strain to produce a tryptophan independent strain.
S. typhimurium strain TA1535 and E. coli strain Wp2-uvrA^− were received from American Type Culture Collection, Manassas, Va. […] All working stocks of test strains will be confirmed for genotypic markers and acceptable reversion rates.
Master plates of the tester strains were prepared from frozen working stocks. To create working cultures for each bacterial strain used in the assay, a single colony was transferred from the master plate into Oxoid nutrient broth and incubated, with shaking, at 37±2° C. until an optical density (at 650 nm) of 0.6-1.6 was reached. This overnight culture was used for the mutagenicity test and for genotypic confirmation. Genotype tests were performed.
For both the dose range and mutagenicity test, a top agar consisting of 0.6% Difco agar in 0.5% NaCl was melted and a solution of 0.5 mM L-histidine/0.5 mM biotin or 0.5 mM L-tryptophan was added to the melted top agar at a ratio of 10 mL per 100 mL agar, as required. The supplemented agar was aliquotted, 2 mL per tube and held at 45-47° C. To prepare the top agar for treatment, 0.1 mL of the test article or control, 0.1 mL of the bacterial culture and 0.5 mL of phosphate buffered saline were added to the molten agar. […] Metabolic activation was provided by adding 0.5 mL of the S9 mix in place of the PBS. […] All plates were counted using an automatic image analysis system. Negative control and test article treated plates were also examined for the presence of a bacterial lawn.
The in vitro metabolic activation system used in this assay was comprised of Sprague Dawley rat liver enzymes and a cofactor pool. […] Immediately prior to use, the S9 was thawed and mixed with a cofactor pool to contain 5% S9, 5 mM glucose 6-phosphate, 4 mM β-nicotine-adenine dinucleotide phosphate, 8 mM MgCl2 and 33 mM KCl in a 200 mM phosphate buffer at pH 7.4. The S9 was purchased from Moltox (Boone, N.C.) and maintained frozen at less than −70° C.
For the definitive assay, three dose levels were chosen ([…], and 5.0 mg/mL). This was equivalent to 2.0, 1.0, and 0.5 mg/plate. All treatments, including negative and positive control, were plated in triplicate against test strains TA97a, TA98, TA100, TA102, TA1535, and WP2-uvrA^− in the presence and absence of metabolic activation.

[2] = system: caspase-3 activation in HCT-116; assay: Caspase-3/7 assay; type: cell-based; settings: HCT-116 cells, 24 hr, 1, 3 and 5 uM
Procedure: The following protocol was followed (24 hr). On Day 1, seed 0.015×10^6 HCT-116 cells/50 ul/well. Incubate o/n in 37° C. CO2 incubator. On Day 2, remove 25 ul of medium from wells. Treat HCT-116 cells with 1, 3, 5 uM CX-3543. Treat positive control group with Staurosporin 0.01, 0.1, 1 uM. Keep six negative control wells treated with medium only (add 25 ul of diluted sample to appropriate wells). Incubate for 24 h at 37° C. in a CO2 incubator. On Day 3, prepare Apo-ONE Homogeneous Caspase-3/7 assay reagent (Promega) at 10 ul reagent/1 ml buffer. Add 50 ul of diluted reagent. Incubate one hour at room temp. Measure fluorescence at 485/520.

[3] = TA100, with S9 activation, 0.125 mg/plate
[4] = TA100, with S9 activation, 0.25 mg/plate
[5] = TA100, with S9 activation, 0.5 mg/plate
[6] = TA100, with S9 activation, 1.0 mg/plate
[7] = TA100, with S9 activation, 2.0 mg/plate
[8] = TA100, without S9 activation, 0.125 mg/plate
[9] = TA100, without S9 activation, 0.25 mg/plate
[10] = TA100, without S9 activation, 0.5 mg/plate
[11] = TA100, without S9 activation, 1.0 mg/plate
[12] = TA100, without S9 activation, 2.0 mg/plate

CN1CCCC1CCNC(=O)c1cn2c3c(c(N4CCC(c5cnccn5)C4)c(F)cc3c1=O)Oc1cc3ccccc3cc1-2 (stereo not shown) [CX-3543]
inhibitory activity against topoisomerase II (topoisomerase II): not to be an inhibitor or poison
concentration up to which no topoisomerase dependent strand breaks were induced (topoisomerase II; supercoiled DNA, FIG. 7): > 100 µM
mutagenicity (reversion rates) ([1]; S. typhimurium, with and without S9): non-mutagenic
FI [1, 3]: 1.5
TA100 colony count (Rep 1-3) [1, 3]: 175 and 177
TA100 colony count, Mean [1, 3]: 175.7
FI [1, 4]: 1.5
TA100 colony count (Rep 1-3) [1, 4]: 185 and 177 and 189
TA100 colony count, Mean [1, 4]: 183.7
FI [1, 5]: 1.6
TA100 colony count (Rep 1-3) [1, 5]: 182 and 190 and 193
TA100 colony count, Mean [1, 5]: 188.3
FI [1, 6]: 1.4
TA100 colony count (Rep 1-3) [1, 6]: 175 and 147 and 168
TA100 colony count, Mean [1, 6]: 163.3
FI [1, 7]: 1.1
TA100 colony count (Rep 1-3) [1, 7]: 111 and 131 and 137
TA100 colony count, Mean [1, 7]: 126.3
FI [1, 8]: 1.1
TA100 colony count (Rep 1-3) [1, 8]: 153 and 144 and 135
TA100 colony count, Mean [1, 8]: 144.0
FI [1, 9]: 1.1
TA100 colony count (Rep 1-3) [1, 9]: 154 and 148 and 146
TA100 colony count, Mean [1, 9]: 149.3
FI [1, 10]: 1.1
TA100 colony count (Rep 1-3) [1, 10]: 161 and 154 and 137
TA100 colony count, Mean [1, 10]: 150.7
FI [1, 11]: 1.0
TA100 colony count (Rep 1-3) [1, 11]: 147 and 120 and 134
TA100 colony count, Mean [1, 11]: 133.7
FI [1, 12]: 0.9
TA100 colony count (Rep 1-3) [1, 12]: 126 and 117 and 122
TA100 colony count, Mean [1, 12]: 121.7
caspase-3 levels [2]: dose responsive increase
